Values after ≈ are worked out from the molar mass of the structure shown.
Key:
Folsomia candida = conditions: chronic/long-term; duration: 28 days; reproduction
Oryctolagus sp. = conditions: reproduction developmental; clinical signs
Canidae = conditions: chronic; duration: 1 years; oral; Dog Other; gross pathology
Pimephales promelas = conditions: acute; duration: 96 hours; mortality
Tagia sp. = conditions: chronic/long-term; duration: 56 days; reproduction
Rattus norvegicus = conditions: for LD50: acute, mortality
Apis mellifera = conditions: acute, mortality
Aphidius rhopalosiphi = assay: LR50; higher = less toxic; conditions: not reported; mortality
Typhlodromus pyri = assay: LR50; higher = less toxic; conditions: not reported; mortality
Oncorhynchus mykiss = conditions: acute; duration: 96 hours; mortality
Bibionidae = conditions: chronic/long-term; duration: 28 days
[1] = chronic, duration: 2 years, organ weight

Row | Structure (SMILES) | NOEC (Folsomia candida) | NOAEL (Oryctolagus sp.) | NOAEL (Canidae) | LC50 (Pimephales promelas) | NOEC (Tagia sp.) | LD50 (Rattus norvegicus) | NOAEL (Rattus norvegicus; chronic) | NOAEL (Rattus norvegicus; [1]) | LD50 (Apis mellifera; dermal) | LD50 (Apis mellifera; oral, unspecified) | LR50 (Aphidius rhopalosiphi) | LR50 (Typhlodromus pyri) | LD50 (Colinus virginianus; acute, oral, mortality) | NOEC (Colinus virginianus; chronic) | LC50 (Oncorhynchus mykiss) | NOEC (Bibionidae) | LD50 (Rattus norvegicus; oral) | NOAEL (Rattus norvegicus; reproduction developmental, reproduction)
1 | Oc1ccc(Cl)cc1Cl [2,4-Dichlorophenol] | 0.63 mg/kg |  |  |  |  |  |  |  |  |  |  |  |  |  |  |  |  | 
2 | O=C(O)COc1ccc(Cl)cc1Cl [2,4-Dichlorophenoxyacetic acid] |  | 30 mg/kg-day | 2.04 mg/kg-day | 100 µg/mL (≈ 452 µM) | 62.5 mg/kg | 486 mg/kg | 20.6 mg/kg-day | 2.48 mg/kg-day | > 100 µg/piece | 94 µg/piece |  |  |  |  |  |  |  | 
3 | O=C(O)CCCOc1ccc(Cl)cc1Cl [2,4-Dichlorophenoxybutyric acid] |  | 30 mg/kg-day | 2.04 mg/kg-day |  | 82.1 mg/kg |  |  | 2.48 mg/kg-day | > 100 µg/piece | > 100 µg/piece | > 1800 g/ha | > 1800 g/ha | 1540 mg/kg | 101 mg/kg-day | 3 µg/mL (≈ 12 µM) | 24.6 mg/kg | 1470 mg/kg | 22.5 mg/kg-day
